The text below walks through data of patent US9533985B2, “Sulfonamide derivative and medicinal use thereof” (EA Pharma Co., Ltd., priority 2012, dated 2017).

Format in all cases: cell-based
Experiment [1] deals with T1, α4β7 integrin (Homo sapiens (Human), UniProt P13612+P26010). Nature of the experiment: MAdCAM-1/α4β7 integrin binding inhibitory activity evaluation test in the presence of serum (1). As to conditions: RPMI-8866 cells binding to mouse MAdCAM-1/Fc, human serum at final concentration of 50%; read-out: α4β7 with serum added, IC50. As for the experimental part: (§1) The ability of test substances to inhibit the binding of a human B cell line, RPMI-8866, which is known to express α4β7 integrin, to MAdCAM-1 was measured. To 96-well microtiter plates, recombinant mouse MAdCAM-1/Fc (R&D systems) solution (1 μg/mL) diluted with buffer A (carbonate buffer, pH 9.6) was added at 50 μL/well, followed by incubation at 4° C. overnight. After washing once with PBS, Block Ace (Snow Brand Milk Products Company, Limited) was added at 150 μL/well, followed by incubation at room temperature for 2 hours. After removal, washing was conducted once with PBS. 100 μL of each test substance diluted with a binding buffer (DMEM containing 40 mM HEPES, 0.2% BSA, and 4 mM MnCl2) to various concentrations and 100 μL of RPMI-8866 cells (2×10^6 cell/mL) were added to plates coated with MAdCAM-1/Fc (5×10^5 cells/well) with human serum being contained at a final concentration of 50%, followed by incubation at 30° C. for 15 minutes to 60 minutes. After the cells were bound to each well, unbound cells were removed by washing with PBS. To the plates, buffer C (PBS containing 1.5% Triton X-100) was added at 50 μL/well to lyse the bound RPMI-8866 cells. To 30 μL of the cell lysate, 30 μL of Substrate Buffer (Promega, CytoTox 96 Non-Radioactive Cytotoxicity Assay) was added, and the reaction was allowed to proceed at room temperature in a dark place for 30 minutes. To each well, 30 μL of Stop Solution (Promega, CytoTox 96 Non-Radioactive Cytotoxicity Assay) was added, and the absorbance at 490 nm was measured by using a plate reader. Here, by the obtained absorbance, the activity of the lactate dehydrogenase (LDH) dissolved into the supernatant of each well was detected. In other words, the absorbance was proportional to the number of the RPMI-8866 cells bound to MAdCAM-1 and remaining on the plate. The test was duplicated. The binding ratios of the cells at various concentrations were determined, with the absorbance of a well containing no test substance taken as 100%. Then, the concentration IC50, at which 50% binding inhibition was achieved, was calculated.
T1 sequence (P13612 34-1032): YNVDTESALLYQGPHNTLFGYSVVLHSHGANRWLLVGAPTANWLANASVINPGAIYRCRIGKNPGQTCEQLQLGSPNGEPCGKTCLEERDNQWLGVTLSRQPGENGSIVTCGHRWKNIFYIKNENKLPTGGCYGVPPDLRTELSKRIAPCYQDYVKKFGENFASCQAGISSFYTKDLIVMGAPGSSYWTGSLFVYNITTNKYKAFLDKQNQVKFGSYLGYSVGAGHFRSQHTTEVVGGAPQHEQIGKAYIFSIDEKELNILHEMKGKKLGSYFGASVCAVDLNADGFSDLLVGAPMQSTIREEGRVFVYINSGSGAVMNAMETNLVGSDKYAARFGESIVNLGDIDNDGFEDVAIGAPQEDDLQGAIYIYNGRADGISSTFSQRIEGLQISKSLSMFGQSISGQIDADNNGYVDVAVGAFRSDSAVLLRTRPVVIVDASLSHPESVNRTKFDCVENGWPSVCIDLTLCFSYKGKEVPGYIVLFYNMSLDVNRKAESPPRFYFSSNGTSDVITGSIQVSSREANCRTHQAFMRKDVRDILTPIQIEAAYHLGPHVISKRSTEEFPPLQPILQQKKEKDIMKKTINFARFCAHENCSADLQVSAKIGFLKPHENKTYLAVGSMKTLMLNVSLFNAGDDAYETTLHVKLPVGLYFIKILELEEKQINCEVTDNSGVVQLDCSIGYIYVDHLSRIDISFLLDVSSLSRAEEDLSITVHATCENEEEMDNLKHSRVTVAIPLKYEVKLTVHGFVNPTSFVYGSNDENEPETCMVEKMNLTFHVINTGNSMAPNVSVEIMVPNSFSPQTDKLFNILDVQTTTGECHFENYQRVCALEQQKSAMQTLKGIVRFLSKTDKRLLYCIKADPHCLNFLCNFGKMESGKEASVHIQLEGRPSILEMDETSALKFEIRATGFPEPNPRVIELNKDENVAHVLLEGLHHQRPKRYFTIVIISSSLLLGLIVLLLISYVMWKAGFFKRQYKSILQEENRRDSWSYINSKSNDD
T1 sequence (P26010 20-798): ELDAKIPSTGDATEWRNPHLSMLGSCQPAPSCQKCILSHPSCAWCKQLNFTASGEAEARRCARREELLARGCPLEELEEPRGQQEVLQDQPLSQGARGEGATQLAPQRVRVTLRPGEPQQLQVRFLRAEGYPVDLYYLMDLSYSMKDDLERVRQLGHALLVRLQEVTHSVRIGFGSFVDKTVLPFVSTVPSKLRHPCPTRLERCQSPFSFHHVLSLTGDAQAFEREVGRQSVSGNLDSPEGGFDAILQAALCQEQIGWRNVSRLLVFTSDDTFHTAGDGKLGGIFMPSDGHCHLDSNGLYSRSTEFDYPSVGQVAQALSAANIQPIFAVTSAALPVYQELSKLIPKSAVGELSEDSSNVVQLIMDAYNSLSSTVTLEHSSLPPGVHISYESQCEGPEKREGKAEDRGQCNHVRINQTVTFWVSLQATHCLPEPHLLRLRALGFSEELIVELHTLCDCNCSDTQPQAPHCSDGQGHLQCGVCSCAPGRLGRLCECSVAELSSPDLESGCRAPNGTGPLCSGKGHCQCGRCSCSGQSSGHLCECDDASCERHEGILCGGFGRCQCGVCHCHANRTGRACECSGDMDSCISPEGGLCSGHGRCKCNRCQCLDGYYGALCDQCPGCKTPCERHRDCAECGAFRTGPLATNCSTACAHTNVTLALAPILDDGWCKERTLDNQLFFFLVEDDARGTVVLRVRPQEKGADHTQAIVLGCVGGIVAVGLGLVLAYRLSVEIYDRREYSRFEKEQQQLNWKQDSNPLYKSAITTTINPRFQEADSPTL

Experiment [2] addresses T1, α4β7 integrin. Nature of the experiment: MAdCAM-1/α4β7 integrin binding inhibitory activity evaluation test (RPMI-8866 cell adhesion to MAdCAM-1/Fc). Particulars: for Selectivity: IC50 in VCAM-1/α4β1 test divided by IC50 in MAdCAM-1/α4β7 test; for IC50: RPMI-8866 cells binding to recombinant mouse MAdCAM-1/Fc, no serum. As to the method: as §1, with “systems) solution (0.75 μg/mL) diluted” for “systems) solution (1 μg/mL) diluted”, “A (carbonate buffer solution, pH 9.6)” for “A (carbonate buffer, pH 9.6)”, “diluted with binding buffer” for “diluted with a binding buffer”, “added to the plates coated” for “added to plates coated”, “MAdCAM-1/Fc (5×10^5 cells/well), followed by” for “MAdCAM-1/Fc (5×10^5 cells/well) with human serum being contained at a final concentration of 50%, followed by”, “was calculated. […] Note that the selectivity in the table was determined by dividing the IC50 value in VCAM-1/α4β1 Integrin Binding Inhibitory Activity Evaluation Test by the IC50 value in the MAdCAM-1/α4β7 integrin binding inhibitory activity evaluation test.” for “was calculated.”

Another experiment has as its target α4β1 integrin (Homo sapiens (Human), UniProt P05556+P13612). The experiment can be described thus: VCAM-1/α4β1 integrin binding inhibitory activity evaluation test (Jurkat cell adhesion to VCAM-1/Fc). As to conditions: Jurkat cells binding to recombinant human VCAM-1/Fc. As for the experimental part:
The ability of test substances to inhibit the binding of a human T-cell line, Jurkat, which is known to express α4β1 integrin, to VCAM-1 was measured. To 96-well microtiter plates, recombinant human VCAM-1/Fc (R&D systems) solution (1 μg/mL) diluted with buffer A (carbonate buffer, pH 9.6) was added at 50 μL/well, followed by incubation at 4° C. overnight. After washing once with PBS, Block Ace (Snow Brand Milk Products Company, Limited) was added at 150 μL/well, followed by incubation at room temperature for 2 hours. After removal, washing was conducted once with PBS. 100 μL of each test substance diluted with a binding buffer (DMEM containing 40 mM HEPES, 0.2% BSA, and 4 mM MnCl2) to various concentrations and 100 μL of the Jurkat cells (2×10^6 cell/mL) were added to the plates coated with VCAM-1/Fc (5×10^5 cells/well), followed by incubation at 30° C. for 15 minutes to 60 minutes. After the cells were bound to each well, unbound cells were removed by washing with PBS. To the plates, buffer C (PBS containing 1.5% Triton X-100) was added at 50 μL/well to lyse the bound Jurkat cells. To 30 μL of the cell lysate, 30 μL of Substrate Buffer (Promega, CytoTox 96 Non-Radioactive Cytotoxicity Assay) was added, and the reaction was allowed to proceed at room temperature in a dark place for 30 minutes. To each well, 30 μL of Stop Solution (Promega, CytoTox 96 Non-Radioactive Cytotoxicity Assay) was added, and the absorbance at 490 nm was measured by using a plate reader. Here, by the obtained absorbance, the activity of the lactate dehydrogenase (LDH) dissolved into the supernatant of each well was detected. In other words, the absorbance was proportional to the number of the Jurkat cells bound to VCAM-1 and remaining on the plate. The test was duplicated. The binding ratios of the cells at various concentrations were determined, with the absorbance of a well containing no test substances taken as 100%. Then, the concentration IC50, at which 50% binding inhibition was achieved, was calculated. […] Note that, among the compounds synthesized in the corresponding Examples, the compounds in the free form (Compounds A-1 to A-39) were used as the test compounds. Hereinafter, the same shall apply.

Sequence of α4β1 integrin (P13612 34-1032): as the sequence (P13612 34-1032) above
Sequence of α4β1 integrin (P05556 21-798): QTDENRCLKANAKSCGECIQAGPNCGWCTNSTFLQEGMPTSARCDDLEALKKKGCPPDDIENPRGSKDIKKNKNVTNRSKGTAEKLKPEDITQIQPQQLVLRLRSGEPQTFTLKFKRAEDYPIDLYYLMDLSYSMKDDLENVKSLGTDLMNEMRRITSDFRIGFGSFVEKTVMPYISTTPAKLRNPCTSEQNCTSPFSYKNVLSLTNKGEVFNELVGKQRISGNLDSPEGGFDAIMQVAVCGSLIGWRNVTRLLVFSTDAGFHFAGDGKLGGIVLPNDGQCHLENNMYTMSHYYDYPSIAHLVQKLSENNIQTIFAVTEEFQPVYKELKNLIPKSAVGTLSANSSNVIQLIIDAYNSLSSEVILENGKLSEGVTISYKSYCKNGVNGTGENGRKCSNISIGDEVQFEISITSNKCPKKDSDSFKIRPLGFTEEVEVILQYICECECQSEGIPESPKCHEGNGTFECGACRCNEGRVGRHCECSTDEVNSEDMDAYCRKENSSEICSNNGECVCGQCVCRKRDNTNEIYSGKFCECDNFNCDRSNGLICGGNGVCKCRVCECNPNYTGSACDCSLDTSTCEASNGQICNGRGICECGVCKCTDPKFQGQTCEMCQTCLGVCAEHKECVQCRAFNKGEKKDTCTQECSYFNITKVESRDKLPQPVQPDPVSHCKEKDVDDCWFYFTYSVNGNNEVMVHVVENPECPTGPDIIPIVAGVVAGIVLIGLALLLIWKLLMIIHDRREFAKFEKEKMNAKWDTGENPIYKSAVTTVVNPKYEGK

The term IC50 denotes the concentration that gives 50% inhibition. On to `Cn1c(=O)n(-c2ccc(C[C@H](NC(=O)c3c(F)cc(NS(=O)(=O)c4ccc(-n5cncn5)cn4)cc3F)C(=O)O)cc2)c(=O)c2ccncc21` [Example 57, N-[2,6-Difluoro-4-({[5-(1H-1,2,4-triazol-1-yl)pyridin-2-yl]sulfonyl}amino)benzoyl]-4-(1-methyl-2,4-dioxo-1,4-dihydropyrido[3,4-d]pyrimidin-3(2H)-yl)-L-phenylalanine], for which the IC50 at α4β7 integrin [1] is 1.5 nM; on α4β7 integrin [2], 0.06 nM; at α4β1 integrin, 13 nM. Also, the Selectivity on α4β7 integrin [2] worked out at 220.
In the same order, the values of `Cn1ccc(=O)n(-c2ccc(C[C@H](NC(=O)c3c(F)cc(NS(=O)(=O)c4ccc(-n5ccnn5)cc4)cc3F)C(=O)O)cc2)c1=O` [Example 58, N-[2,6-Difluoro-4-({[4-(1H-1,2,3-triazol-1-yl)phenyl]sulfonyl}amino)benzoyl]-4-(3-methyl-2,6-dioxo-3,6-dihydropyrimidin-1(2H)-yl)-L-phenylalanine] are 4.8 nM, 1 nM, 410 nM and 410.
`Cn1c(=O)n(-c2ccc(C[C@H](NC(=O)c3c(F)cc(NS(=O)(=O)c4ccc(-c5nccs5)cn4)cc3F)C(=O)O)cc2)c(=O)c2ccncc21` [Example 59, N-[2,6-Difluoro-4-({[5-(1,3-thiazol-2-yl)pyridin-2-yl]sulfonyl}amino)benzoyl]-4-(1-methyl-2,4-dioxo-1,4-dihydropyrido[3,4-d]pyrimidin-3(2H)-yl)-L-phenylalanine]: the IC50 at α4β7 integrin [1] worked out at 4.1 nM; on α4β7 integrin [2], 0.17 nM; at α4β1 integrin, 22 nM. This compound also yielded a Selectivity on α4β7 integrin [2] of 130.
In the same order, the values of `Cn1ccc(=O)n(-c2ccc(C[C@H](NC(=O)c3c(F)cc(NS(=O)(=O)c4ccc(-c5cncnc5)cc4)cc3F)C(=O)O)cc2)c1=O` [Example 60, N-(2,6-Difluoro-4-{[(4-pyrimidin-5-yl-phenyl)sulfonyl]amino}benzoyl)-4-(3-methyl-2,6-dioxo-3,6-dihydropyrimidin-1 (2H)-yl)-L-phenylalanine] are 5.5 nM, 1.1 nM, 1200 nM and 1100.
The like results for `Cn1c(=O)n(-c2ccc(C[C@H](NC(=O)c3c(F)cc(NS(=O)(=O)c4ccc(-n5nccn5)cc4)cc3F)C(=O)O)cc2)c(=O)c2ccncc21` [Example 61, N-[2,6-Difluoro-4-({[4-(2H-1,2,3-triazol-2-yl)phenyl]sulfonyl}amino)benzoyl]-4-(1-methyl-2,4-dioxo-1,4-dihydropyrido[3,4-d]pyrimidin-3(2H)-yl)-L-phenylalanine] were, in that order, 8.7 nM, 0.46 nM, 150 nM and 330.
For `Cn1c(=O)n(-c2ccc(C[C@H](NC(=O)c3c(F)cc(NS(=O)(=O)c4ccc(-n5cccn5)cc4)cc3F)C(=O)O)cc2)c(=O)c2ccncc21` [Example 62, N-[2,6-Difluoro-4-({[4-(1H-pyrazol-1-yl)phenyl]sulfonyl}amino)benzoyl]-4-(1-methyl-2,4-dioxo-1,4-dihydropyrido[3,4-d]pyrimidin-3(2H)-yl)-L-phenylalanine], the half-inhibitory concentration (IC50) came out at 13 nM at α4β7 integrin [1], 0.64 nM at α4β7 integrin [2] and 100 nM at α4β1 integrin. For the same compound, the Selectivity at α4β7 integrin [2] was determined as 160.
In the same order, the values of `Cn1ccc(=O)n(-c2ccc(C[C@H](NC(=O)c3c(F)cc(NS(=O)(=O)c4ccc(-c5cncnc5)cn4)cc3F)C(=O)O)cc2)c1=O` [Example 63, N-(2,6-Difluoro-4-{[(5-pyrimidin-5-yl-pyridin-2-yl)sulfonyl]amino}benzoyl)-4-(3-methyl-2,6-dioxo-3,6-dihydropyrimidin-1(2H)-yl)-L-phenylalanine] are 11 nM, 0.8 nM, 480 nM and 600.
As for `Cn1ccc(=O)n(-c2ccc(C[C@H](NC(=O)c3c(F)cc(NS(=O)(=O)c4ccc(-n5cccc5)cc4)cc3F)C(=O)O)cc2)c1=O` [Example 64, N-[2,6-Difluoro-4-({[4-(1H-pyrrol-1-yl)phenyl]sulfonyl}amino)benzoyl]-4-(3-methyl-2,6-dioxo-3,6-dihydropyrimidin-1(2H)-yl)-L-phenylalanine], the concentration for half-maximal inhibition (IC50) on α4β7 integrin [1] was found to be 22 nM; on α4β7 integrin [2] it was 2 nM; at α4β1 integrin, 1500 nM. At α4β7 integrin [2], this compound showed a Selectivity of 750.
In the same order, the values of `Cc1cnccc1-c1ccc(S(=O)(=O)Nc2cc(F)c(C(=O)N[C@@H](Cc3ccc(-n4c(=O)c5ccncc5n(C)c4=O)cc3)C(=O)O)c(F)c2)cc1` [Example 65, N-[2,6-Difluoro-4-({[4-(3-methylpyridin-4-yl)phenyl]sulfonyl}amino)benzoyl]-4-(1-methyl-2,4-dioxo-1,4-dihydropyrido[3,4-d]pyrimidin-3(2H)-yl)-L-phenylalanine] are 9.7 nM, 0.56 nM, 420 nM and 750.
